Results taken from PMC10525927, “First Generation of Antioxidant Precursors for Bioisosteric Se-NSAIDs: Design, Synthesis, and In Vitro and In Vivo Anticancer Evaluation” (Antioxidants, 2023).

Tests used:
[1] = DPPH radical scavenging assay
Procedure: Briefly, the compounds were dissolved at a concentration of 1 mg/mL in absolute methanol, and a dilution was prepared. […] Then, 100 µL of the DPPH solution was added to 100 µL of the compounds’ solution to a final concentration of 0.03 mg/mL or 0.06 mg/mL, and the decolorization of the purple radical to the yellowish reduced form was followed by recording the absorbance at 517 nm. Ascorbic acid (Asc) and Trolox were used as positive controls. Both of them, Asc and Trolox, were purchased from Sigma-Aldrich. Determinations were recorded at eight different time intervals from 0 to 120 min on a BioTeck PowerWave XS spectrophotometer, and the data were collected using KCJunior version 1.41. software. All the measurements were carried out in triplicate. Results are expressed as the percentage of the radical scavenged, calculated using the following formula: % DPPH radical scavenging = [(Acontrol − Asample)/Acontrol] × 100, wherein Acontrol refers to the absorbance of the negative control and Asample refers to the absorbance of the tested compounds.

[2] = tested on: MDA-MB-231 breast cancer cells; test: MTT cell viability assay, MDA-MB-231; assay type: cell-based; settings: mean ± SD
Procedure: (§1) The cell lines were purchased from the American Type Culture Collection (ATCC). The cancer cell lines DU-145, PC-3, T-47D, MDA-MB-231, H1299, and A549, and the non-tumorigenic cells (184B5 and BEAS-2B), were maintained in RPMI 1640 medium (Gibco, Alcobendas, Madrid, Spain) supplemented with 10% fetal bovine serum (FBS; Gibco) and 1% antibiotics (10.00 units/mL penicillin and 10.00 mg/mL streptomycin; Gibco). Colon cancer cells HT-29 and HCT-116 were cultured in McCoy’s 5A medium (Gibco) supplemented with 10% fetal bovine serum (FBS; Gibco) and 1% antibiotics (10.00 units/mL penicillin and 10.00 mg/mL streptomycin; Gibco). Cells were maintained in tissue culture flasks at 37 °C and 5% CO2. The culture medium was replaced every three days.
(§2) The antiproliferative activity and selectivity in vitro of the Se-NSAID derivatives were determined by the (3-(4,5-dimethylthiazol-2-yl)-2,5-diphenyltetrazolium bromide) (MTT) assay. Compounds were dissolved in DMSO at a concentration of 0.01 M and serial dilutions were prepared. The Se-NSAID derivatives were tested at seven concentrations ranging between 1 and 100 µM in the colon (HT-29 and HCT-116), prostate (DU-145 and PC-3), breast (MDA-MB-231 and T-47D), and lung (H1299 and A549) cancer cell lines. The non-tumorigenic breast (184B5) and lung (BEAS-2B) cell lines were also tested to assess the selectivity of the compounds following the same procedure. A total of 1 × 10^4 cells were seeded per well in 96-well plates and incubated at 5% CO2 and 37 °C for 24 h. Then, cells were treated with either DMSO or increasing concentrations of the corresponding Se-NSAID derivatives for 48 h. A volume of 20 µL of MTT (5 mg/mL) was added to each well 2.5 h before the termination point. At the end of the experiment, the medium was removed, and the resultant formazan crystals formed by mitochondrial reduction of MTT were dissolved in 50 µL of DMSO. Absorbance was measured at 550 nm. IC50, GI50, TGI, and LC50 values were calculated using OriginPro version 8.5.1. software by nonlinear curve fitting. Selectivity indexes (SI) were calculated as the ratio of the IC50 values determined for the nonmalignant and the tumoral cells in the breast (IC50 (184B5)/IC50 (MDA-MB-231) and IC50 (184B5)/IC50 (T-47D)) and lung (IC50 (BEAS-2B)/IC50 (H1299) and IC50 (BEAS-2B)/IC50 (A549)) cell lines. Data were obtained from at least three independent experiments performed in triplicates.

[3] = tested on: HCT-116 colon cancer cells; test: MTT cell viability assay, HCT-116; assay type: cell-based; settings: mean ± SD
Procedure: as §1, §2

A549 lung cancer cells = test: MTT cell viability assay, A549; assay type: cell-based; settings: Homo sapiens, A549, 48 h, mean ± SD
Procedure: as §1, §2

HCT-116 cells = test: Caspase 3/7 apoptosis assay; assay type: cell-based; settings: HCT-116, 24 h
Procedure: The capacity of the Se-NSAID derivatives to induce apoptosis was analyzed using both a Caspase 3/7 assay kit and Annexin V & Dead Cell assay kit (EMD Millipore, Darmstadt, Germany). HCT-116 cells were seeded in 6-well plates at a density of 5 × 10^5 cells per well. Cells were treated either with DMSO (control) or with different concentrations of compound 5 and incubated for 24 h. At the end of the treatment, cells were collected and treated with the respective dyes according to the manufacturer’s protocol. For the Caspase 3/7 assay, cells were stained with 5 µL of Muse™ Caspase 3/7 working solution and incubated at 37 °C for 30 min. After incubation, […] of Muse™ Caspase 7-AAD working solution was added and the samples were incubated for another 5 min in the dark at room temperature prior to analysis. For Annexin V assay, cells were stained with 100 µL pf Muse™ Annexin V & Dead Cell Reagent and incubated for 20 min at room temperature in the dark. Samples for both assays were analyzed on a Muse™ Cell Analyzer (Merck Millipore, Darmstadt, Germany) using Muse™ version 1.4. software.

HT-29 colon cancer cells = test: MTT cell viability assay, HT-29; assay type: cell-based; settings: mean ± SD
Procedure: as §1, §2

[4] = tested on: T-47D breast cancer cells; test: MTT cell viability assay, T-47D; assay type: cell-based; settings: 48 h, mean ± SD
Procedure: as §1, §2

[5] = tested on: DU-145 prostate cancer cells; test: MTT cell viability assay, DU-145; assay type: cell-based; settings: mean ± SD
Procedure: as §1, §2

[6] = in vitro TGI concentration, 48 h, Table S1

CC(C)Cc1ccc(C(C)C(=O)[Se][Se]C(=O)C(C)c2ccc(CC(C)C)cc2)cc1 (centres unmarked) [Compound 5, 2-(4-Isobutylphenyl)propanoic diselenoperoxyanhydride]
DPPH radical scavenging activity ([1]; highest concentration tested (0.06 mg/mL), by the end of the experiment (120 min)): comparable to those of the positive controls
DPPH radical scavenging activity ([1]; lowest concentration tested (0.03 mg/mL)): 20%
IC50 ([2]; Homo sapiens, MDA-MB-231, 48 h): 8.3 ± 2.5 µM
GI50 ([2]; Homo sapiens, MDA-MB-231, 48 h, Table S1): 4.8 ± 1.1 µM
TGI MDA-MB-231 [2, 6]: 7.9 ± 3.8 µM
IC50 ([3]; Homo sapiens, HCT-116, 48 h): 9 ± 3 µM
GI50 ([3]; Homo sapiens, HCT-116, 48 h, Table S1): 4.6 ± 1.5 µM
TGI HCT-116 [3, 6]: 10.3 ± 3.8 µM
IC50 (A549 lung cancer cells): 4.5 ± 0.6 µM
GI50 (A549 lung cancer cells; Table S1): 2.3 ± 0.2 µM
Dead cells (HCT-116 cells; Caspase 3/7 assay, 25 μM): ~ 11%
caspase 3/7 activity (HCT-116 cells; 2.5 to 25 µM, result in words): no clear enhancement
IC50 (HT-29 colon cancer cells; Homo sapiens, HT-29, 48 h): 8.5 ± 2.7 µM
GI50 (HT-29 colon cancer cells; Homo sapiens, HT-29, 48 h, Table S1): 4.8 ± 1 µM
TGI HT-29 (HT-29 colon cancer cells; [6]): 7.2 ± 1.8 µM
LD50 T-47D ([4]; Table S1): 4.2 ± 0.3 µM
IC50 ([4]; Homo sapiens, T47D): 3.8 ± 0.2 µM
GI50 ([4]; Homo sapiens, T47D, Table S1): 1.8 ± 0.4 µM
TGI T-47D ([4]; in vitro TGI concentration, Table S1): 2.7 ± 0.3 µM
LD50 DU-145 ([5]; 48 h, Table S1): 9.0 ± 0.4 µM
IC50 ([5]; Homo sapiens, DU-145, 48 h): 7 ± 1.3 µM
GI50 ([5]; Homo sapiens, DU-145, 48 h, Table S1): 6 ± 1.3 µM
TGI DU-145 [5, 6]: 7.3 ± 0.9 µM
